Laboratory results reported in publication PMC10824666 (Nature Cancer, 2023).
Read-outs that look alike come from different tables or passages of the source. Values belong to the compound of their own block, whether it stands above or below them.

Tests used:
Test in all cases: biochemical
Set-up in all cases: Eurofins DiscoverX kinase panel, competitive binding assay at 1 uM, percent of DMSO control
Settings in all cases: competitive binding, percent of DMSO control
OXSR1 = OXSR1 (Homo sapiens, UniProt O95747)
Experimental: (§1) Extended Data Fig. 3 In vitro characterization of potent and selective KIF18A inhibitors. a, KIF18A compounds (1 µM) were assessed across a panel of kinases (n = 96) by a competitive binding assay. Graph presented as percentage of control (POC); dashed line indicates POC value of 30 (n = 1 experiment). b, Tubulin polymerization analysis. Profile of KIF18A compounds (10 µM) relative to DMSO, paclitaxel (5 µM, tubulin stabilizer), or nocodazole (5 µM, tubulin destabilizer). Graphs presented as tubulin fluorescence signal at 440 nm expressed as arbitrary units (a.u.) versus time (min) with area-under-the-curve (AUC) values (n = 1 or 3 independent experiments). c, Mitotic spindle image analysis. […] Representative images were captured with x40 objective (scale bar = 10 µm) (n = 1 experiment). d-f, KIF18A compound effects on HeLa cells. d, Cells were treated for 96 h with DMSO or KIF18A compounds at the indicated concentrations. KIF18A compound concentration-response profiles presented as count relative to the percentage of DMSO control (POC) with count EC50 values (n = 2 independent experiments in duplicate). e, KIF18A protein localization in cells after treatment for 6 hours with DMSO or AM-1882 (0.05 µM). Cells stained to detect DNA, KIF18A, and centrin-3. Representative images of mitotic cells (n = 3 per group) were captured with x60 objective (scale bar = 5 µm) and graphs of line scan measurements were obtained for DNA, KIF18A, and centrin-3 channels expressed as fluorescence intensity (a.u.) versus distance (µm) (n = 1 experiment). f, Mitotic cell fate imaging analysis. HeLa Kyoto cells co-expressing α-tubulin-EGFP and H2B-mCherry proteins released from a G1S block in media containing DMSO or AM-1882 (0.2 µM). Analysis was performed on cells entering the first mitosis (n = 40 cells per group). Graph presented as time in mitosis (h) versus mitotic cell fate, either complete cell division (CCD) or death in mitosis (DiM). Classified cells exiting mitosis by the number of daughter cells and cell death in […] We screened a small-molecule library of diverse compounds for selective inhibitors of KIF18A MT-ATPase motor activity. Two compound hits were discovered that phenocopied the effects of KIF18A KD in cells; these hits are structurally distinct from the KIF18A inhibitor BTB-1 (refs. [27],[28]). […] However, the potency of the KIF18A inhibitors was unaffected by varying ATP and MT concentrations (Extended Data Fig. 2d). This supports our proposed model in which KIF18A inhibitors occupy an allosteric pocket formed by motor helices α4 and α6 close to the motor MT-binding surface. To screen for potential off-target interactions with essential mitotic kinases, three of the KIF18A compounds were profiled against a large panel of kinases. […] We next investigated whether our KIF18A inhibitors affected tubulin polymerization in vitro in the absence of the KIF18A motor. All four KIF18A compounds had tubulin-polymerization profiles similar to that of the DMSO control and distinct from those of the paclitaxel (MT stabilizer) and nocodazole (MT destabilizer) co

GRK1 = target: T1, GRK1 (Homo sapiens, UniProt Q15835)
T1 sequence (Q15835 1-563): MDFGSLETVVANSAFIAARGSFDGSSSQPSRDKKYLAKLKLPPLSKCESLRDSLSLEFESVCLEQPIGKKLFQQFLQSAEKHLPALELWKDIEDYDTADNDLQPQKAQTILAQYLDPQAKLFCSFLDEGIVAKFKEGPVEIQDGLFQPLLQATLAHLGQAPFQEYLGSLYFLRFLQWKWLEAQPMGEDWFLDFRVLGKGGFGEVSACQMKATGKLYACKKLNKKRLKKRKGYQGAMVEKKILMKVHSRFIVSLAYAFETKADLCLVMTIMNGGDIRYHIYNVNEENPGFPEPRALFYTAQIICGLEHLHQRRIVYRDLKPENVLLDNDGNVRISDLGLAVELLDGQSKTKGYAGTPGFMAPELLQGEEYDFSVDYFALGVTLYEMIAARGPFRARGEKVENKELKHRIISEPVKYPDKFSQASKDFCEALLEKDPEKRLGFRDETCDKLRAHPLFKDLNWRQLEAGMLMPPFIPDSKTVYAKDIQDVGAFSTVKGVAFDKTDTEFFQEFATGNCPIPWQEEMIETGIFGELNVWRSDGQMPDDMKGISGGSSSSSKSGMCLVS
Experimental: as §1

JNK3 = target: T2, JNK3 (Homo sapiens, UniProt P53779)
T2 construct: gene MAPK10
Experimental: as §1

PRKAA1 = PRKAA1 (Homo sapiens, UniProt Q13131)
Experimental: as §1

SRC = SRC (Homo sapiens, UniProt P12931)
Experimental: as §1

ALK = ALK (Homo sapiens, UniProt Q9UM73)
Experimental: as §1

Tyk-2 = target: T3, Tyk-2 (Homo sapiens, UniProt P29597)
T3 construct: gene TYK2
Experimental: as §1

TNIK = TNIK (Homo sapiens, UniProt Q9UKE5)
Experimental: as §1

Plk 1 = target: T4, Plk 1 (Homo sapiens, UniProt P53350)
T4 construct: gene PLK1
Experimental: as §1

MARK1 = MARK1 (Homo sapiens, UniProt Q9P0L2)
Experimental: as §1

[1] = read-out: Kinome Profiling performed by Eurofins DiscoverX / AM-1882, 1.0 µM / POC
[2] = read-out: Kinome Profiling performed by Eurofins DiscoverX / AM-5308, 1.0 µM / POC
[3] = read-out: Kinome Profiling performed by Eurofins DiscoverX / AM-0277, 1.0 µM / POC

Chain of PRKAA1 (Q13131 whole entry): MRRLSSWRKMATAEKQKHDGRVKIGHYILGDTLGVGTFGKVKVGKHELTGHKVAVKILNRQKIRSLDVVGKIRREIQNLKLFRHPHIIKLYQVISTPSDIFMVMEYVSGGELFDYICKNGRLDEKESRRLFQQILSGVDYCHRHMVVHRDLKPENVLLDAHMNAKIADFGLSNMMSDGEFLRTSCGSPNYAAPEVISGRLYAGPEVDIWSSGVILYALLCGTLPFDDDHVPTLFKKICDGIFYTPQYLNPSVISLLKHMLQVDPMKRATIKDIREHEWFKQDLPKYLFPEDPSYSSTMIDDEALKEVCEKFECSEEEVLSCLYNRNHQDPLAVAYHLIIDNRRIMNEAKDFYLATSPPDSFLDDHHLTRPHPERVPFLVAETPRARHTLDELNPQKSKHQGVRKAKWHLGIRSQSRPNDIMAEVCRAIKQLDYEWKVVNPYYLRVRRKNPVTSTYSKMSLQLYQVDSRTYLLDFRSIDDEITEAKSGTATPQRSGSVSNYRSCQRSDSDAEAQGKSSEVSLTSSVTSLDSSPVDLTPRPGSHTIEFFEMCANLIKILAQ
Chain of PRKAA1 (P54619 whole entry partner): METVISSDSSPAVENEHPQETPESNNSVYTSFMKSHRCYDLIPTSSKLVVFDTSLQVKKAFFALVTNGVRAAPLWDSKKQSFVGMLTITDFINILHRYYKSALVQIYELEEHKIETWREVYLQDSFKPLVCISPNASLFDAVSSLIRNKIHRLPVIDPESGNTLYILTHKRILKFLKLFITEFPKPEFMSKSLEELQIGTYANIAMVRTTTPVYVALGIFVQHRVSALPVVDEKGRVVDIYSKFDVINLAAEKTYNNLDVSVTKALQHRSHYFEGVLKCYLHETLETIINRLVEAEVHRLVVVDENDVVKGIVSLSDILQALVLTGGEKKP
Chain of PRKAA1 (Q9Y478 whole entry partner): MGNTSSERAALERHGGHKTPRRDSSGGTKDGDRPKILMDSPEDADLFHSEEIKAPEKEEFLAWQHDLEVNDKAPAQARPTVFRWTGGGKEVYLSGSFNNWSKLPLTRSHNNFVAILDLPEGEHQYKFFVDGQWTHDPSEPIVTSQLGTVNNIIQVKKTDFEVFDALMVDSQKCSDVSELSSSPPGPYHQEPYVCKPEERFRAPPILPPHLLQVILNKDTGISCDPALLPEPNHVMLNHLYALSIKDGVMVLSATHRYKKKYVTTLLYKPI
Chain of ALK (Q9UM73 whole entry): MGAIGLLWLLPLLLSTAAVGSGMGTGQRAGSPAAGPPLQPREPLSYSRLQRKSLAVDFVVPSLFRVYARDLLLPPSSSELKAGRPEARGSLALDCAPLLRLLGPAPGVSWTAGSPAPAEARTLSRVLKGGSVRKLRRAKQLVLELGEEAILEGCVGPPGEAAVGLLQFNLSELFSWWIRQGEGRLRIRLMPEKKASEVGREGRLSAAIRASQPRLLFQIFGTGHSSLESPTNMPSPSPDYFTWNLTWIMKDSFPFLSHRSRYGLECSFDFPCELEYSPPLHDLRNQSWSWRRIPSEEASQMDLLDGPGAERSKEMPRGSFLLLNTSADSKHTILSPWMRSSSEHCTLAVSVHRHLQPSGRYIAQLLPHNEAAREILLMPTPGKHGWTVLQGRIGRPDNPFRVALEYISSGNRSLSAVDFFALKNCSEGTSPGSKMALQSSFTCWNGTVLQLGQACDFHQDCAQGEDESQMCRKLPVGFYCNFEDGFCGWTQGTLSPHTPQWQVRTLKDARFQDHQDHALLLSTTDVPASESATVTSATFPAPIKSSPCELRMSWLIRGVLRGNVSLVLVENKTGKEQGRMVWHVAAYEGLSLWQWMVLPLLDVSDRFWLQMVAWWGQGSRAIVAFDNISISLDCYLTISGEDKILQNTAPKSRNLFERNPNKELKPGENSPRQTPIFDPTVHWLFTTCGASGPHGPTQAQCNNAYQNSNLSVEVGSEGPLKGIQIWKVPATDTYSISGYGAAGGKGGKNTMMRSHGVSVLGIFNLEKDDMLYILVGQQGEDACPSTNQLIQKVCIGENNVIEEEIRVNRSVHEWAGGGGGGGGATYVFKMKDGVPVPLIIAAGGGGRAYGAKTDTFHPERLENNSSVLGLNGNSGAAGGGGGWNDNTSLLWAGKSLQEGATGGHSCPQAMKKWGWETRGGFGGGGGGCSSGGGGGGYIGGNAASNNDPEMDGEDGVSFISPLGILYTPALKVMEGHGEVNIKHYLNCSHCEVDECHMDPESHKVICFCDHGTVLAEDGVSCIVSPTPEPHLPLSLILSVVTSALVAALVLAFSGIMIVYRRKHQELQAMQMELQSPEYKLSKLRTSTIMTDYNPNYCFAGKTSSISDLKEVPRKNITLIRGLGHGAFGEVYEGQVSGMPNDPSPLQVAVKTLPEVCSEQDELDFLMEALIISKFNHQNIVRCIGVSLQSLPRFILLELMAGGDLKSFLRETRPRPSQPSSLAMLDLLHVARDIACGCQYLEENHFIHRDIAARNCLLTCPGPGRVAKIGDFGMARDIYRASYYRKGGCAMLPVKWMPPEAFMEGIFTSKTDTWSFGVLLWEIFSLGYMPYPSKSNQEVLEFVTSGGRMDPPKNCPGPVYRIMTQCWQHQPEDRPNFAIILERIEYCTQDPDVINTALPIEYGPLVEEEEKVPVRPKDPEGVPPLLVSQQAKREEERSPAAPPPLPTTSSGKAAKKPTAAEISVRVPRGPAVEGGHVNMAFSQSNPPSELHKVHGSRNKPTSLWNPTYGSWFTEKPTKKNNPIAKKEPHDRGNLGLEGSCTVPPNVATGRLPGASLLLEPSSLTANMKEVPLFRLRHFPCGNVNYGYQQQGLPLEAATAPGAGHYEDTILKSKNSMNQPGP
T2 sequence (P53779 whole entry): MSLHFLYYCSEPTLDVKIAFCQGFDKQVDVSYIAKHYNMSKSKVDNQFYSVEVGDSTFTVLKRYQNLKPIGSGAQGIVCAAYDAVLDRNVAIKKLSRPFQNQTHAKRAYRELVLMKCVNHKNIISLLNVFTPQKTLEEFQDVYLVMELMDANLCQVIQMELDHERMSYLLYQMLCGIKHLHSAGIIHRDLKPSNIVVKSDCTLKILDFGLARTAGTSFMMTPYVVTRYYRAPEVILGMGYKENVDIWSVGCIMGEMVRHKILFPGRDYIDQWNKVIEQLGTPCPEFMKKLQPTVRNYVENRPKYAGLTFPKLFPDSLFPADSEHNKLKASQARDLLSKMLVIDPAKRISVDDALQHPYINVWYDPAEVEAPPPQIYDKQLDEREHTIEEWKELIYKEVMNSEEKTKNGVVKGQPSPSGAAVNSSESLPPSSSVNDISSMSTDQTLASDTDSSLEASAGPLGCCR
Chain of TNIK (Q9UKE5 whole entry): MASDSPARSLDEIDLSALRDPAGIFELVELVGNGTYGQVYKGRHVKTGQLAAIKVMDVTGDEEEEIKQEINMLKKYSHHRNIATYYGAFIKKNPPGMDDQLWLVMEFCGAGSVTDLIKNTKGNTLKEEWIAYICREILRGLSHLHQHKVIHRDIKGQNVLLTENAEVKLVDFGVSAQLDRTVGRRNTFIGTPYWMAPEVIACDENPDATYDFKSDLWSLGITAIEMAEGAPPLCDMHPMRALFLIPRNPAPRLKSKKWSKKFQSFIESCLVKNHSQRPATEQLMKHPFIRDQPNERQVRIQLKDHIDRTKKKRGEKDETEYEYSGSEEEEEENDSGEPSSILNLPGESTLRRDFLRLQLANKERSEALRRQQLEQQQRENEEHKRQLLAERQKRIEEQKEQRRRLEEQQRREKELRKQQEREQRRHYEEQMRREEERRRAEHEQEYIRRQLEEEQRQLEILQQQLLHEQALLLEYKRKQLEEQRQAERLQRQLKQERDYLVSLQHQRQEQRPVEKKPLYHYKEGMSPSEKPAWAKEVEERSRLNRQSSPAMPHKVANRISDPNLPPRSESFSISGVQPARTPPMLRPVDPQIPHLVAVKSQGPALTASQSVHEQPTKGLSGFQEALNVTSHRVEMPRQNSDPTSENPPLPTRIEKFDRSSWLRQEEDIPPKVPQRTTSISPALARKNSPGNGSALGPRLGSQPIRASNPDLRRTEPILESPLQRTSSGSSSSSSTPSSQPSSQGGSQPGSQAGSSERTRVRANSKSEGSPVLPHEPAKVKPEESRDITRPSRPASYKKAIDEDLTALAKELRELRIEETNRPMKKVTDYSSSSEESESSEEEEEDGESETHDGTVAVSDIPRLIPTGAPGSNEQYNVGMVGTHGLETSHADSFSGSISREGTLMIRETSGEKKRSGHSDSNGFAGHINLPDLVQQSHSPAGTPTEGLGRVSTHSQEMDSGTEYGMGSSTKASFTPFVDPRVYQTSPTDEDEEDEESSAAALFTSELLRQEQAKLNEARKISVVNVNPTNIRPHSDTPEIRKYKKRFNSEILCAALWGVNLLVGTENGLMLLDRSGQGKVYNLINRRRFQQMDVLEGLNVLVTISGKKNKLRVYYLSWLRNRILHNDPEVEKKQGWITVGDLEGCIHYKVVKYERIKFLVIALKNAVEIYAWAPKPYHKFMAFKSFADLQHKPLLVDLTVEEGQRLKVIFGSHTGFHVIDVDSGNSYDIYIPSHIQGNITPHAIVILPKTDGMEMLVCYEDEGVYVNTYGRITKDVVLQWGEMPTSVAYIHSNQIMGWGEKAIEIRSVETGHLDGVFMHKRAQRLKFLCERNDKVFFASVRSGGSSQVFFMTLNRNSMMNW

remaining activity at 1 µM (OXSR1; [1]): 92.5% | remaining activity at 1 µM (GRK1; [1]): 98.5% | remaining activity at 1 µM (JNK3; [1]): 82% | remaining activity at 1 µM (PRKAA1; [1]): 100% | remaining activity at 1 µM (SRC; [1]): 98% | remaining activity at 1 µM (ALK; [1]): 81% | remaining activity at 1 µM (Tyk-2; [1]): 100% | remaining activity at 1 µM (TNIK; [1]): 82% | remaining activity at 1 µM (Plk 1; [1]): 100% | remaining activity at 1 µM (MARK1; [1]): 100%
Structure (SMILES): CC(C)(C)NS(=O)(=O)c1cccc(NC(=O)c2ccc(S(=O)(=O)NC(C)(C)C)cc2N2CCC3(CC2)CC3)c1 [AM-1882]

remaining activity at 1 µM (OXSR1; [2]): 82.5% | remaining activity at 1 µM (GRK1; [2]): 91% | remaining activity at 1 µM (JNK3; [2]): 88.5% | remaining activity at 1 µM (PRKAA1; [2]): 97% | remaining activity at 1 µM (SRC; [2]): 96.5% | remaining activity at 1 µM (ALK; [2]): 89% | remaining activity at 1 µM (Tyk-2; [2]): 84% | remaining activity at 1 µM (TNIK; [2]): 52.5% | remaining activity at 1 µM (Plk 1; [2]): 95% | remaining activity at 1 µM (MARK1; [2]): 98.5%
Structure (SMILES): C[C@@H]1CN(c2cccc(NC(=O)c3ccc(NS(=O)(=O)CCO)cc3N3CCC4(CC3)CC4)n2)CCO1 [AM-5308]

remaining activity at 1 µM (OXSR1; [3]): 100% | remaining activity at 1 µM (GRK1; [3]): 81% | remaining activity at 1 µM (JNK3; [3]): 100% | remaining activity at 1 µM (PRKAA1; [3]): 96% | remaining activity at 1 µM (SRC; [3]): 89% | remaining activity at 1 µM (ALK; [3]): 100% | remaining activity at 1 µM (Tyk-2; [3]): 100% | remaining activity at 1 µM (TNIK; [3]): 88% | remaining activity at 1 µM (Plk 1; [3]): 100% | remaining activity at 1 µM (MARK1; [3]): 96%
Structure (SMILES): CC(C)(CO)Nc1ccc(C(=O)Nc2cccc(S(=O)(=O)C3CCCC3)c2)c(N2CCC3(CC2)CC3)n1 [AM-0277]
